Measured values taken from patent US6458808B1, “Pharmaceutical composition for the treatment of cognitive cerebrovascular disease” (Osmotica Corp., priority 2000, dated 2002).

Experiments:
[1] = test system: patients having either mild or very mild cognitive deterioration; experiment: Double-blind 16-week clinical trial (CDR, Barthel's, Folstein's tests, Global Clinical Impression); type: in vivo, human; settings: for Global Clinic Impression: after 16-week treatment, code 1 highly worsened, 4 unchanged, 5 slightly improved, 6 improved, 7 highly improved; for BARTHEL's test, final mark / CDR test, final mark / FOLSTEIN's test, final mark: group average after 16-week treatment, twice a day; for FOLSTEIN's test, final mark: higher mark = favorable; for BARTHEL's test, initial mark / FOLSTEIN's test, initial mark / CDR test, initial mark: group average at baseline, before 16-week treatment; for CDR test, initial mark: twice a day oral
Text: Seventy nine patients having either mild or very mild cognitive deterioration with the following inclusion criterion:
Antecedents of ischaemic cerebrovascular pathology with symptoms or only with expression in brain computerized tomography (silent infarct). In case of focal or acute multimodal symptoms, at least a three-month period should elapse since symptoms evidence before being included in the tests.
Severity of cognitive deterioration was of the very mild or mild type CDR scale 0,5 and 1 (Clinical Dementia Rating).
Patients were selected from the Neurology area of four different hospitals. In each center a randomization list for parallel groups was established. Tablets in the three groups had the same aspect so as to preserve the double-blind characteristic of the study.
For diagnosis of cognitive deterioration and its association to ischaemic cerebrovascular disorders the criteria proposed in 1992 by the California University, USA, were used, in both their probable and possible forms.
The degree of severity of the cognitive disorder is limited to a borderline, mild condition, according to CDR scale in its points 0.5 and 1. A Hamilton test is carried out in order to detect a depressive condition, which shall contribute to the differential diagnosis of a pseudo dementia.
The Barthel index was used for evaluation of everyday life.
During the initial period a washing in medicine intake was made, in the weeks −4 to 0, the latter being the baseline for those drugs considered to be vasoactive or nootropic.
The observation period lasted 16 weeks, so patients were randomized in three groups which received as double-blind treatment:
Idebenone 45 mg, twice a day.
Nimodipine 30 mg, twice a day.
Idebenone 45 mg+Nimodipine 30 mg, twice a day.
Therapeutic efficacy criteria were based on the results of Folstein's, CDR and Barthel's scales and Global Clinical Impression (GCI). In order to evaluate therapeutic efficacy between the group receiving the combined dosage and the groups receiving the idebenone or nimodipine alone, a statistically significant improvement in one of the following criteria should exist: […]

[2] = oral, multiple doses of 45 or 100 mg, healthy volunteers; cited from earlier work
[3] = in vivo; cited from earlier work

COC1=C(OC)C(=O)C(CCCCCCCCCCO)=C(C)C1=O [Group A, 6-(10-hydroxydecil)-2,3-dimethoxy-5-methyl-1,4-benzoquinone]
Global Clinic Impression [1]: 5.0 | BARTHEL's test, final mark [1]: 87.6 | CDR test, final mark [1]: 0.64 | FOLSTEIN's test, final mark [1]: 24.8 | BARTHEL's test, initial mark [1]: 87.2 | FOLSTEIN's test, initial mark [1]: 22.8 | CDR test, initial mark [1]: 0.68 | accumulation after repeated doses [2]: Accumulation does not occur | delivery to tissues [3]: widely delivered to different tissues, including the brain

COCCOC(=O)C1=C(C)NC(C)=C(C(=O)OC(C)C)C1c1cccc([N+](=O)[O-])c1 (stereo not shown) [Group B, 1,4-dyhidro-5-(isopropoxycarbonyl)-2,6-dimethyl-4-(3-nitrophenyl)-3-pyridine-carboxylate of 2-methoxyethyl]
Global Clinic Impression [1]: 4.9 | BARTHEL's test, final mark [1]: 81.1 | CDR test, final mark [1]: 0.63 | FOLSTEIN's test, final mark [1]: 23.9 | BARTHEL's test, initial mark [1]: 80.7 | FOLSTEIN's test, initial mark [1]: 22.5 | CDR test, initial mark [1]: 0.67
